Assay results published in patent US10420815B2, “Combinational therapy for synergistic inhibition of gram-positive and gram-negative bacteria” (priority 2015, dated 2019).
Like-named read-outs stand apart in the source and are kept apart here. Bridge positions count the residues as written; N and C are the ends. Square brackets hold non-standard residues; d marks the D form. Peptide text beside a SMILES is read from it. * marks the point of attachment. Ileψ(thiazoline)Cys = CC[C@H](C)[C@H](N)C1=N[C@H](C(=O)*)CS1; dOrn = NCCC[C@@H](N)C(=O)O

Experiments:
USA300 = experiment: Bacterial membrane permeability (propidium iodide fluorescence); format: cell-based, Staphylococcus aureus; conditions: agent alone, sub-MIC levels, EDTA 1 mM
Protocol: Membrane permeability was determined by measuring fluorescence after exposure of USA300 to propidium iodide as described previously^29. Briefly, USA300 was grown in MH broth to the exponential phase and then diluted to OD600≈0.25. Propidium iodide was mixed with bacteria to a final concentration of 10 μM. […] Fluorescence was monitored at excitation and emission wavelengths of 585 nm and 620 nm, respectively, for 1 h using FLUOstar Omega® (BMG Labtech, Germany). The membrane permeability was calculated by subtracting fluorescence intensity of controls without treatment with phenolic compounds from that of treated samples. EDTA (1 mM) was used as a positive control.

MRSA USA300 (BAA-1680) [1] = experiment: Growth kinetics (OD600) with bacitracin, alkyl gallates and combinations; format: cell-based, Staphylococcus aureus; conditions: for growth inhibition by bacitracin in combination with alkyl gallate: bacitracin 0.001 U to 100 U
Description: (§1) MRSA (ATCC 33593), MSSA (ATCC 29213), and MRSA USA300 (BAA-1680) strains were purchased from the American Type Culture Collection (ATCC; Manassas, Va.). Eight clinical isolates of MRSA were obtained from the Culture Collection of Antimicrobial Resistant Microbes, Korea National Research Resource Center (KNRRC). Salmonella enterica Typhimurium LT2 was purchased from ATCC, and Escherichia coli O157:H7 is a kind gift from Dr. Sangryeol Ryu (Seoul National University, South Korea). All S. aureus strains were maintained in Trypticase Soy (TS) medium, and E. coli O157:H7 and Salmonella were routinely grown aerobically on Luria-Bertani (LB) media at 37° C. For measuring growth kinetics, an overnight culture of MRSA in Mueller-Hinton (MH) broth was diluted 100-fold in fresh MH broth and cultured until early exponential phase. The culture (200 μl) was transferred to each well of a sterile 96-well plate and incubated at 37° C. with bacitracin alone, alkyl gallate alone, and combination of bacitracin/alkyl gallates at various concentrations. The optical density at 600 nm (OD600) was measured every hour with FLUOstar® Omega (BMG Labtech, Germany).

[2] = tested on: MRSA (normal MRSA strain, not USA300); experiment: MRSA growth (optical density) with bacitracin and phenolic antioxidants; format: cell-based, Staphylococcus aureus
Description: as §1
MRSA were grown with bacitracin (0.002 μg/mL) with antioxidant (as shown) at 0.5 μg/mL.
FIG. 7A is growth with no added bacitracin or lauryl gallate.
The optical density of MRSA was measured after 18 h culture with bacitracin (0.002 μg/ml) and antioxidants (as indicated at 0.5 μg/ml). Also measured were controls with no additions, with bacitracin alone and with antioxidant alone. FIGS. 8A, 8B, 8C and 8D are graphs illustrating the results.

Escherichia coli O157:H7 = experiment: microbe, parasite or virus in culture; format: cell-based; conditions: E. coli O157:H7; agent alone
Description: as §1
(§2) Broth micro dilution assays were performed to determine the minimum inhibitory concentrations (MIC) accordance to the M7-A7 protocol of the Clinical and Laboratory Standards Institute (CLSI) guidelines^28. The susceptibility test was carried out with an initial bacterial inoculum of 1.5×10^5 CFU ml^−1. Alkyl gallates and bacitracin were serially diluted in a polystyrene 96 well plate and the plate was incubated at 37° C. for 24 h. Minimum bactericidal concentration (MBC) was determined by spotting 10 μl of cultures from MIC tests onto MH agar and incubated aerobically at 37° C.
MIC and MBC were measured as described above. MIC and MBC data are shown in Table 5 for both the Salmonella and the E. coli strain tested. The tested strains were highly resistant to bacitracin.

MSSA (ATCC 29213) = experiment: MIC (broth dilution) and MBC (spotting) of phenolic antioxidants and bacitracin; format: cell-based, Staphylococcus aureus; conditions: for MIC: antioxidant alone
Description: as §1, §2
(§3) MICs were determined with MRSA and methicillin-sensitive S. aureus (MSSA) using a broth dilution method as described above.
(§4) MRSA and MSSA were cultured overnight with antioxidants (0.5 μg/ml) and bacitracin at various concentrations and 10 μL of the culture was spotted on MH agar plates and incubated aerobically at 37° C. to observe the bacterial viability. The results in FIGS. 9A, 9B, 9C and 9D (photographs of plates) show the Minimal Bactericidal Concentrations (MBCs) for indicated antioxidants. Bacitracin killed MRSA and MSSA at concentrations greater than or equal to 2 μg/mi.

MRSA 3823 = experiment: microbe, parasite or virus in culture; format: cell-based, Staphylococcus aureus; conditions: MRSA 3823 (human/nose)
Description: as §1, §2

MRSA 3865 = experiment: microbe, parasite or virus in culture; format: cell-based, Staphylococcus aureus; conditions: MRSA 3865 (human/skin)
Description: as §1, §2

MRSA 3876 = experiment: microbe, parasite or virus in culture; format: cell-based, Staphylococcus aureus; conditions: MRSA 3876 (human/skin)
Description: as §1, §2

MRSA 3799 = experiment: microbe, parasite or virus in culture; format: cell-based, Staphylococcus aureus; conditions: MRSA 3799 (human/nose)
Description: as §1, §2

MRSA 3095 = experiment: microbe, parasite or virus in culture; format: cell-based, Staphylococcus aureus; conditions: MRSA 3095 (human/skin)
Description: as §1, §2

MRSA 3A585 = experiment: microbe, parasite or virus in culture; format: cell-based, Staphylococcus aureus; conditions: MRSA 3A585 (human/blood)
Description: as §1, §2

MRSA 3903 = experiment: microbe, parasite or virus in culture; format: cell-based, Staphylococcus aureus; conditions: MRSA 3903 (human/skin)
Description: as §1, §2

MRSA 3795 = experiment: microbe, parasite or virus in culture; format: cell-based, Staphylococcus aureus; conditions: MRSA 3795 (human/nose)
Description: as §1, §2

MRSA (ATCC 33593) = experiment: microbe, parasite or virus in culture; format: cell-based, Staphylococcus aureus; conditions: MRSA; for MIC: antioxidant alone
Description: as §1, §2, §3, §4

MRSA USA300 (BAA-1680) [3] = experiment: microbe, parasite or virus in culture; format: cell-based, Staphylococcus aureus; conditions: for bactericidal activity in combination with bacitracin: FIG. 2
Description: as §1, §2

[4] = Staphylococcus aureus, read-out: MIC
[5] = Staphylococcus aureus, 24 h, agent alone, read-out: MIC
[6] = Staphylococcus aureus, agent alone, read-out: MBC
[7] = antioxidant 0.5 μg/ml, compared to bacitracin alone

| Compound | MIC (MRSA USA300 (BAA-1680) [3]; agent alone) | MIC (MRSA 3823; [4]) | MIC (MRSA 3865; [4]) | MIC (MRSA 3876; [4]) | MIC (MRSA 3799; [4]) | MIC (MRSA 3095; [4]) | MIC (MRSA 3A585; [4]) | MIC (MRSA 3903; [4]) | MIC (MRSA 3795; [4]) | MBC (MRSA USA300 (BAA-1680) [3]; agent alone) | growth inhibition by bacitracin in combination with alkyl gallate (MRSA USA300 (BAA-1680) [1]) | further results |
| --- | --- | --- | --- | --- | --- | --- | --- | --- | --- | --- | --- | --- |
| CC[C@H](C)[C@H](N)C1=N[C@H](C(=O)N[C@@H](CC(C)C)C(=O)N[C@H](CCC(=O)O)C(=O)N[C@H](C(=O)N[C@H]2CCCCNC(=O)[C@H](CC(N)=O)NC(=O)[C@@H](CC(=O)O)NC(=O)[C@H](Cc3cnc[nH]3)NC(=O)[C@@H](Cc3ccccc3)NC(=O)[C@H]([C@@H](C)CC)NC(=O)[C@@H](CCCN)NC2=O)[C@@H](C)CC)CS1 [Bacitracin, reference compound] ({Ileψ(thiazoline)Cys}-L[dE]IK[dOrn]I[dF]H[dD]N; lactam 4-C) | 1024 µg/mL |  |  |  |  |  |  |  |  | 2048 µg/mL |  | membrane permeability (USA300): did not affect membrane permeability; growth inhibition by bacitracin only (MRSA USA300 (BAA-1680) [1]; up to 100 U bacitracin, without alkyl gallates): did not inhibit USA300; MRSA growth inhibition by bacitracin alone ([2]; bacitracin 0.0019 μg/mL to 1 μg/mL, FIG. 7B): did not inhibit MRSA; MBC (Escherichia coli O157:H7): >1024 µg/mL; MIC (Escherichia coli O157:H7): >1024 µg/mL; concentration of bacitracin alone that killed (MBC) (MSSA (ATCC 29213); bacitracin alone): greater than or equal to 2 μg/mi; MIC (MRSA 3823): 64 µg/mL; MIC (MRSA 3865): 128 µg/mL; MIC (MRSA 3876): 128 µg/mL; MIC (MRSA 3799): 128 µg/mL; MIC (MRSA 3095): 128 µg/mL; MIC (MRSA 3A585): 128 µg/mL; MIC (MRSA 3903): 32 µg/mL; MIC (MRSA 3795): 8 µg/mL; bacitracin MIC for MRSA (MRSA (ATCC 33593); bacitracin alone): 2 µg/mL; concentration of bacitracin alone that killed (MBC) (MRSA (ATCC 33593); bacitracin alone): greater than or equal to 2 μg/mi; MBC (MRSA USA300 (BAA-1680) [3]; bacitracin alone, in units): 200 U; MIC (MRSA USA300 (BAA-1680) [3]; bacitracin alone, in units): 100 U |
| CCCCOC(=O)c1cc(O)c(O)c(O)c1 [Butyl gallate (BG), Butyl gallate] |  | 512 µg/mL | 512 µg/mL | 512 µg/mL | 512 µg/mL | 512 µg/mL | 512 µg/mL | 512 µg/mL | 512 µg/mL |  | significant growth inhibition | bactericidal activity in combination with bacitracin (MRSA USA300 (BAA-1680) [3]): synergistic antimicrobial activity; MIC (MRSA USA300 (BAA-1680) [3]; [5]): 512 µg/mL; MBC (MRSA USA300 (BAA-1680) [3]; [6]): 1020 µg/mL |
| O=C(O)CN(CCN(CC(=O)O)CC(=O)O)CC(=O)O [EDTA, reference compound] |  |  |  |  |  |  |  |  |  |  |  | membrane permeability (USA300): significantly increased membrane permeability |

Further lines, with some results ahead:

| MIC (MRSA USA300 (BAA-1680) [3]; agent alone) | MIC (MRSA 3823; [4]) | MIC (MRSA 3865; [4]) | MIC (MRSA 3876; [4]) | MIC (MRSA 3799; [4]) | MIC (MRSA 3095; [4]) | MIC (MRSA 3A585; [4]) | MIC (MRSA 3903; [4]) | MIC (MRSA 3795; [4]) | Compound | MBC (MRSA USA300 (BAA-1680) [3]; agent alone) | growth inhibition by bacitracin in combination with alkyl gallate (MRSA USA300 (BAA-1680) [1]) | further results |
| --- | --- | --- | --- | --- | --- | --- | --- | --- | --- | --- | --- | --- |
| 128 µg/mL | > 1020 µg/mL | > 1020 µg/mL | > 1020 µg/mL | > 1020 µg/mL | > 1020 µg/mL | > 1020 µg/mL | > 1020 µg/mL | > 1020 µg/mL | CCOC(=O)c1cc(O)c(O)c(O)c1 [Ethyl gallate (EG), ethyl gallate] | 256 µg/mL | significant growth inhibition |  |
| 128 µg/mL | > 1020 µg/mL | > 1020 µg/mL | > 1020 µg/mL | > 1020 µg/mL | > 1020 µg/mL | > 1020 µg/mL | > 1020 µg/mL | > 1020 µg/mL | COC(=O)c1cc(O)c(O)c(O)c1 [Methyl gallate (MG), methyl gallate] | 256 µg/mL | significant growth inhibition |  |
| 128 µg/mL | 512 µg/mL | > 1020 µg/mL | > 1020 µg/mL | 512 µg/mL | > 1020 µg/mL | > 1020 µg/mL | > 1020 µg/mL | 512 µg/mL | CCCOC(=O)c1cc(O)c(O)c(O)c1 [Propyl gallate, propyl gallate] | 256 µg/mL |  | growth of MRSA with bacitracin plus antioxidant ([2]; bacitracin 0.002 μg/mL, antioxidant 0.5 μg/mL, FIG. 6): significantly inhibited the growth of MRSA; MIC (MSSA (ATCC 29213); [4]): 128 µg/mL; fold decrease of bacitracin MBC by antioxidant (MSSA (ATCC 29213); [7]): 16 fold; MIC (MSSA (ATCC 29213)): 64 µg/mL; fold decrease of bacitracin MBC by antioxidant (MRSA (ATCC 33593); [7]): 8 fold; MIC (MRSA (ATCC 33593)): 512 µg/mL; MIC (MRSA (ATCC 33593); [4]): 256 µg/mL |
|  | > 1020 µg/mL | > 1020 µg/mL | > 1020 µg/mL | > 1020 µg/mL | > 1020 µg/mL | > 1020 µg/mL | > 1020 µg/mL | > 1020 µg/mL | CCCCCCCCCCCCCCCCCCOC(=O)c1cc(O)c(O)c(O)c1 [Stearyl gallate (SG), stearyl gallate] |  | completely inhibited the growth of USA300 | bactericidal activity in combination with bacitracin (MRSA USA300 (BAA-1680) [3]): killing effect was not as significant as OG, LG, and BG; MIC (MRSA USA300 (BAA-1680) [3]; [5]): 1020 µg/mL; MBC (MRSA USA300 (BAA-1680) [3]; [6]): 2050 µg/mL |
